Measured values taken from a melting point compilation (Tetko et al.; mined from patent text by program, amines drawn as free bases though some values may be those of a salt).
Residues, ends and D or L forms follow the SMILES beside them. *: point of attachment. Cbz = O=C(OCc1ccccc1)*

SMILES	melting point [°C]
O=C(NCC(=O)N1c2ccccc2N(Cc2ccccc2)C(=O)[C@H]2CCC[C@H]21)c1ccco1 (relative stereo)	169 to 170
NC(=O)c1c(Cl)c(-c2ccccc2)n2c1CN(C(=O)Nc1ccc(C(=O)O)cc1)CC2	281 to 283
Nn1c(C(F)(F)F)cc(-c2ccc(C(F)(F)F)cc2)cc1=O	125
N#Cc1ccc2c(c1)CN1C(=Nc3cccnc3)SC[C@@H]1C2	172
CC(C)c1c(Sc2cccc(Cl)c2)nc(COC(N)=O)n1C	145 to 146
COc1c(C)cc(C)c2c1C(=O)C1CCCCC21 (centres undefined)	72 to 74
CCc1cccc(CNC[C@@H](O)[C@H](Cc2cc(F)cc(F)c2)NC(=O)CC2CCCC(=O)C2)c1 (some centres undefined)	140 to 150
Cc1cc2cn[nH]c2c(C(=O)NC2(C3CC3)CC2)c1NC(=O)c1cc(Br)nn1-c1ncccc1Cl	170 to 173
COC(=O)N(C)n1c(C)nc(N2CCc3ccccc3CC2)c(C#N)c1=O	120 to 122
CCCCCNC(=O)N(C)c1cccc(-c2ccc(C=C(OC)C(=O)O)cc2)c1	144
CCCCCCOC(C)c1ccc(-c2ccc(C(=O)O)cc2)cc1 (single isomer, unassigned; (+))	154
O=C(NCC1CCN(C(=O)OCc2ccccc2)CC1)c1ccc(O)cc1	122 to 123
O=c1[nH]c2ccccc2n1CCN1CCc2c([nH]c3ccccc23)C1	214 to 216
CCC12CCC3C4=C(CCC3C1CCC2O)CC(OC)=CC4 (centres undefined)	98 to 104
CC(=O)Oc1ccccc1C(=O)Nc1cc(Cl)cc(Cl)c1	167 to 168
COc1ccc([N+](=O)[O-])c(NCCO)n1	121 to 122
CCCCCCCCCCCCCCCCCC(=O)Nc1cccc(N(CC(=O)O)CC(=O)O)c1	135 to 140
O=C1SCCN1Cc1ccc([N+](=O)[O-])cc1	146 to 148
Cc1cn(NCc2cc(C(C)(C)C)c(O)c(C(C)(C)C)c2)cn1	150 to 151

SMILES	melting point [°C]
COC(=O)Cc1c(Cl)ncnc1N(C)C	30 to 32
CC(C)(C)c1cc(SCCC(=O)NN)cc(C(C)(C)C)c1O	107 to 110
OCc1cccc2c(-c3ccc(Br)cc3)nccc12	226
O=[N+]([O-])c1ccc(-c2nn(-c3ccccc3)cc2CO)o1	148 to 149
CCCCCOc1cccc(N)c1C#N	70 to 73
Cc1ccc(NCCNS(C)(=O)=O)cc1O	145
Fc1ccc(C(CN2CCCC2)=C2SCCCS2)cc1	69 to 70
COc1cc(OC)nc(C2(C#N)OC(=O)c3c(Cl)ccc(Cl)c32)n1 (centres undefined)	123 to 126
CCOCc1nc2c(N)nc3ccc(OCc4ccccc4)cc3c2n1CCCCN(C(N)=O)c1ccccc1	186 to 188
CCCCCNc1n[nH]c(C)c1C(=O)OCC	117 to 119
O=c1ccn(C/C=C/COC(c2ccccc2)(c2ccccc2)c2ccccc2)c(=O)[nH]1	70 to 72
O=C(O)CON(Cc1ccc(F)cc1)C(=O)C=C(O)C(=O)O	135 to 138
COc1ccc2c(c1)Cc1cc(CC(=O)O)ccc1-2	200 to 202
O=C1Nc2ccc(Cl)cc2C1(NCCc1ccccn1)c1ccccc1Cl (centres undefined)	178
COc1cc(Nc2nccc(-c3cccc(NC(=O)c4cccnc4)c3)n2)cc(OC)c1OC	140 to 143
O=c1ncc2c3c(ccc2[nH]1)OCO3	> 300
Nc1scc2c(-c3n[nH]c(=O)o3)nn(-c3ccccc3)c(=O)c12	> 250
CON=Cc1ccc2c(c1)ncn2-c1cccc(-c2cccs2)c1	184 to 185
O=C(N[C@@H](CSC(=O)c1ccccc1)C(=O)N[C@@H](Cc1c[nH]c2ccccc12)C(=O)O)c1ccccc1	175 to 178

SMILES	melting point [°C]
O=C1CC(c2cccc(-n3ccnn3)c2)=Nc2ccc(-c3cccc(F)c3F)cc2N1	230
CC(C)Oc1ccccc1-c1ncc(C(=O)O)c(=O)[nH]1	191 to 193
COc1ccc(N2CCOCC2)c2sc(-c3nc4ccc(N5CCCC5)nc4[nH]3)nc12	264 to 268
Cc1ccc(-n2nc(C(F)F)cc2-c2ccc(S(C)(=O)=O)cc2)cc1Cl	137 to 139
CCCCNC(=O)Nc1ccc(OC)cc1C(=O)NCC1CCN(C(c2ccccc2)c2ccccc2)CC1	206 to 208
COc1ccc(C2c3[nH]c4ccccc4c3CCN2C(=O)C=Cc2cccc([N+](=O)[O-])c2)cc1 (centres undefined)	227
Brc1nnc2n1C=Cc1ccccc1C2	169 to 170
Cc1nc(N(Cc2ccccc2)Cc2ccccc2)c2nc(Cc3ccccc3)n(CCc3ccccc3)c2c1C	139 to 141
CC(=O)OCC(=O)C1(O)C(C)CC2C3CC(C)C4=CC(=O)C=CC4(C)C3=CCC21C (centres undefined)	215 to 216
O=C1c2cc(Cl)ccc2-c2ccccc2CN1CCBr	94 to 97
Cc1cc(C#N)cn2cc(-c3ccc(Br)o3)nc12	204 to 205
Cc1cccc(SSc2cccc(C)c2C(=O)Nc2ccc(S(N)(=O)=O)cc2)c1C(=O)Nc1ccc(S(N)(=O)=O)cc1	273 to 275
Cc1c(C)c(N2CCN(c3ccn(C)n3)CC2)c(C)c2c1OC(C)(C)C2	147 to 149
CC(=O)Nc1nc2cnccc2s1	> 212
CCOC(=O)Cc1cc2ccc(Br)cc2[nH]1	67 to 69
Cc1nc(C#N)ccc1O	201 to 205
CCCCCCN(C[C@@H]1CCCC[C@H]1CN(CCCCCC)C(=O)Nc1ccc(N(C)C)cc1)C(=O)Nc1ccc(N(C)C)cc1 (relative stereo)	112 to 117
Nc1ncnc2c1c(-c1ccc(Oc3ccccc3CN3CCCCC3)cc1)cn2C1CCOC1 (centres undefined)	76 to 78
COc1ccc2c(c1)C=C(c1ccc3c(c1)NC(=O)CO3)C(c1ccccc1)O2 (centres undefined)	200

Results, then the compound that gave them:

melting point [°C]	SMILES
114	CCOC(=O)C(SC)=C(O)C1C(C(=O)O)C1(C)C (centres undefined)
236 to 238	CCNC1CCN(c2c(F)cc3c(=O)c(C(=O)O)cn(C4CC4)c3c2F)C1 (centres undefined)
101	COc1cc(SC2SCC(OC(C)=O)C(OC(C)=O)C2OC(C)=O)cc(OC)c1OC (centres undefined)
95 to 97	c1ccc(CCNc2nc3ccccc3c3[nH]c(C4CCCC4)nc23)cc1
141 to 142	CC(C#Cc1ccc(Oc2ccccc2)cc1)N(O)C(N)=O (centres undefined)
51 to 52	CCOC(=O)CCC(=O)c1ccc2c(c1)CCC2
223 to 225	CC1(C)CCC(C)(C)c2cc3cc(-c4cc(C(=O)O)cs4)ccc3cc21
233 to 235	O=C(COc1ccccc1)Nc1c(Cl)ccc2nc(N3CC[C@@H](O)C3)ccc12
80 to 82	CC(C)Sc1cc(C(C)(C)C)c(O)c(C(C)(C)C)c1
236 to 239	CS(=O)(=O)c1ccc(-c2cccn3nc(N)nc23)cc1
50 to 52	CCOC(=O)NC(=S)NCC(C)C
162 to 164	COc1ccc(CN2Cc3cncn3C(c3ccc(-c4ccsc4)cc3)C2=O)cc1 (centres undefined)
40 to 41	CC(=O)Cc1ccc(SCCCBr)cc1
168 to 170	COc1cc(Nc2c(C#N)cnc3cc(-c4csc(CN5CCOCC5)c4)ccc23)c(Cl)cc1C
244 to 246	Cn1c(CN2C(=O)C3(COc4cc5c(cc43)CCO5)c3ccccc32)nc2ccccc21 (centres undefined)
151 to 153	CCCc1nc(C(C)O)c(C(=O)OCC)[nH]1 (centres undefined)
147 to 148	C(=C\c1nc(COc2ccc(CCCn3cnnn3)cc2)co1)/c1ccccc1
231	Cc1nc(C(F)(F)F)ccc1/C=C/C(=O)Nc1ccc2[nH]ccc2c1
118 to 119	CC(C)(C)c1cc(I)c(O)c(CNC(=O)C(F)(F)F)c1
260 to 263	Clc1nnc(Cl)c2sccc12
65 to 67	CCSc1ccc(OC(C)c2ccnc3ncnn23)cc1 (centres undefined)

melting point [°C]	SMILES
140 to 141	CSc1ccc(/C=C/c2nc3ccccc3n2-c2ccccn2)cc1
161 to 162	Cc1cc(Cl)c(OCCO)cc1Nc1nnc2n1[C@H](c1ccc(F)cc1)COC2
213 to 216	CC1CC(=O)NN=C1c1ccc(NC(=O)c2ccco2)cc1 (centres undefined)
108 to 109	CCOC(=O)C(=CNc1cscc1OCC)C(=O)OCC
179 to 181	CCOC(=O)c1c(-c2ccncc2)[nH]c(-c2ccccc2)c1C
145 to 146	COCCOCCOc1cc(OC)c(-c2cccs2)cc1/C=C/C(=O)c1ccc(C(=O)O)cc1
214 to 215	O=C(NCC1(c2ccccc2)CCCCC1)Nc1cccc(Cl)c1Cl
148 to 150	CC(=O)NCC1CN(c2ccc(N3CCC(=C(C)C#N)C(F)C3)c(F)c2)C(=O)O1 (centres undefined)
131 to 132	CCOC(=O)Nc1cccc(OC)c1[N+](=O)[O-]
125 to 127	CS(=O)(=O)c1ccc(-c2cc(C(=O)CCCCCO)nn2C2CCCCC2)cc1
230 to 231	CC(C)(C)C1=CC(=Nc2cccc(C(=O)O)c2)C=C(C(C)(C)C)C1=O
112 to 122	CC(Cc1c[nH]c2ccccc12)(NC(=O)OC1C2CC3CC(C2)CC1C3)C(=O)NCC(NC(=O)CSc1ncc[nH]1)c1ccccc1 (centres undefined)
149	CC(C)(C)c1ccc(CCOc2ncnc3nccnc23)cc1
222 to 226	CN(Cc1ccc(NC(=O)C2=Cc3cc(-c4ccc5c(c4)CCC(C)(C)O5)ccc3S(=O)(=O)CC2)cc1)C1CCOCC1
97 to 120	Nc1cccc(-c2ccc(OC3CN(Cc4ccccn4)C3)c3ccccc23)n1
78 to 80	COc1cc(C(C)=O)ccc1OCCCCN1CCC(c2nsc3ccccc23)CC1
132 to 135	CC(=O)N(O)C(C)c1ccc2c(c1)oc1ccccc12 (centres undefined)
131 to 133	CC(C)(C)OC(=O)Cn1c2ccccc2c2c(N3CCCC3)nc(N3CCCC3)nc21
110 to 115	O=C(NCC12CC3CC(CC(C3)C1)C2)c1cc(-c2cccnc2N2CCC(C(=O)O)CC2)ccc1Cl
150 to 151	COC(=O)C(NC(=O)C(NC(C)=O)(OC)C(Br)Br)=C(C)C (centres undefined)
196 to 197	COC(=O)C(Cc1ccccc1)NC(=O)C(CC(N)=O)NC(=O)OCc1ccccc1 (stereo not drawn) (Cbz-Asn-Phe-OMe; configuration not given here)
